Experimental data from ChEMBL document CHEMBL3045620, “Trypsin inhibitory potential and microbial transformation of rutin isolated from Citrus sinensis” (Med Chem Res, 2013).

Key:
Format in all cases: protein assay
Trypsin [1] = target: T1, Trypsin (Homo sapiens, UniProt P07477+P07478+P35030); test: Non-competitive inhibition of trypsin (unknown origin) using BApNA as substrate by Lineweaver-Burk/Dixon plot analysis
Trypsin [2] = target: T1, Trypsin; test: Inhibition of trypsin (unknown origin) using BApNA as substrate incubated for 15 min prior to substrate addition measured after 30 min by UV/VIS spectrophotometric analysis
Trypsin [3] = target: T1, Trypsin; test: Inhibition of trypsin (unknown origin) using BApNA as substrate at 2 mg/ml incubated for 15 min prior to substrate addition measured after 30 min by UV/VIS spectrophotometric analysis

SMILES	Ki (Trypsin [1])	IC50 (Trypsin [2])	inhibition (Trypsin [3])
O=c1c(O)c(-c2ccc(O)c(O)c2)oc2cc(O)cc(O)c12 [QUERCETIN]	13.1 µM	19 µM	84.1%
O=S(=O)(F)Cc1ccccc1 [PHENYLMETHYLSULFONYLFLUORIDE]		110 µM	87.4%
C[C@@H]1O[C@@H](OC[C@H]2O[C@@H](Oc3c(-c4ccc(O)c(O)c4)oc4cc(O)cc(O)c4c3=O)[C@H](O)[C@@H](O)[C@@H]2O)[C@H](O)[C@H](O)[C@H]1O [RUTIN]	17.5 µM	16 µM	75.2%
